Assay results: PubChem BioAssay AID2060906 (Molecular Pharmacology Branch, DTP, NCI, 2025)

System: 485176-168-R4-J1-PDC complex spheroid growth
Experiment: Anticancer human tumor 485176-168-R4-J1-PDC patient-derived pancreatic adenocarcinoma cell line growth inhibition [RAS]
Conditions: for IC50: curve of first compound; for viability, T/C: stronger effect = lower value; active = viability on the fitted dose curve at most 10% of control; inactive = the rest
How it was run: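 Multi-cell-type spheroids: tumor cells plus HUVEC endothelial cells and mesenchymal stem cells. RAS-pathway inhibitors were combined with targeted agents, each dosed in half-log steps down from clinical Cmax, or from 10 microM when Cmax was unknown.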

[1] = second compound 0.00316 µM, first compound 0.00316 µM
[2] = second compound 0.00316 µM, first compound 0.01 µM
[3] = second compound 0.00316 µM, first compound 0.0316 µM
[4] = second compound 0.00316 µM, first compound 0.1 µM
[5] = second compound 0.00316 µM, first compound 0.316 µM
[6] = second compound 0.00316 µM, first compound 1 µM
[7] = second compound 0.01 µM, first compound 0.00316 µM
[8] = second compound 0.01 µM, first compound 0.01 µM
[9] = second compound 0.01 µM, first compound 0.0316 µM
[10] = second compound 0.01 µM, first compound 0.1 µM
[11] = second compound 0.01 µM, first compound 0.316 µM
[12] = second compound 0.01 µM, first compound 1 µM
[13] = second compound 0.0316 µM, first compound 0.00316 µM
[14] = second compound 0.0316 µM, first compound 0.01 µM
[15] = second compound 0.0316 µM, first compound 0.0316 µM
[16] = second compound 0.0316 µM, first compound 0.1 µM
[17] = second compound 0.0316 µM, first compound 0.316 µM
[18] = second compound 0.0316 µM, first compound 1 µM
[19] = second compound 0.1 µM, first compound 0.00316 µM
[20] = second compound 0.1 µM, first compound 0.01 µM
[21] = second compound 0.1 µM, first compound 0.0316 µM
[22] = second compound 0.1 µM, first compound 0.1 µM
[23] = second compound 0.1 µM, first compound 0.316 µM
[24] = second compound 0.1 µM, first compound 1 µM
[25] = second compound 0.316 µM, first compound 0.00316 µM
[26] = second compound 0.316 µM, first compound 0.01 µM
[27] = second compound 0.316 µM, first compound 0.0316 µM
[28] = second compound 0.316 µM, first compound 0.1 µM
[29] = second compound 0.316 µM, first compound 0.316 µM
[30] = second compound 0.316 µM, first compound 1 µM
[31] = second compound 1 µM, first compound 0.00316 µM
[32] = second compound 1 µM, first compound 0.01 µM
[33] = second compound 1 µM, first compound 0.0316 µM
[34] = second compound 1 µM, first compound 0.1 µM
[35] = second compound 1 µM, first compound 0.316 µM
[36] = second compound 1 µM, first compound 1 µM
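Note: spheroids exposed to compounds for seven days before readout.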
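Throughout, for viability, T/C: luminescence viability expressed relative to DMSO vehicle wells set as 100%.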

C=CC(=O)Nc1cc(Nc2nccc(-c3cn(C)c4ccccc34)n2)c(OC)cc1N(C)CCN(C)C + C=CC(=O)N1CCN(c2nc(OCC3CCCN3C)nc3c(F)c(-c4nc(N)cc(C)c4C(F)(F)F)c(Cl)cc23)C(C)C1
inactive: viability, T/C [1] 101% | viability, T/C [2] 111% | viability, T/C [3] 102% | viability, T/C [4] 100% | viability, T/C [5] 81.6% | viability, T/C [6] 75.6% | viability, T/C [7] 94.8% | viability, T/C [8] 102% | viability, T/C [9] 109% | viability, T/C [10] 104% | viability, T/C [11] 96.7% | viability, T/C [12] 67.8% | viability, T/C [13] 111% | viability, T/C [14] 122% | viability, T/C [15] 104% | viability, T/C [16] 99.7% | viability, T/C [17] 74.8% | viability, T/C [18] 73.9% | viability, T/C [19] 95.7% | viability, T/C [20] 94.2% | viability, T/C [21] 98.7% | viability, T/C [22] 104% | viability, T/C [23] 90.9% | viability, T/C [24] 52.5% | viability, T/C [25] 110% | viability, T/C [26] 102% | viability, T/C [27] 90.8% | viability, T/C [28] 101% | viability, T/C [29] 84.7% | viability, T/C [30] 66.9% | viability, T/C [31] 113% | viability, T/C [32] 99.6% | viability, T/C [33] 100% | viability, T/C [34] 81% | viability, T/C [35] 75.5% | viability, T/C [36] 57.9%
> 1000 nM: IC50 (second compound 0.00316 µM) | IC50 (second compound 0.01 µM) | IC50 (second compound 0.0316 µM) | IC50 (second compound 0.1 µM) | IC50 (second compound 0.316 µM) | IC50 (second compound 1 µM)

CC(Nc1ccc2c(c1)OCCn1cc(N3C(=O)OCC3C(F)F)nc1-2)C(N)=O (stereo unspecified) + C=CC(=O)N1CCN(c2nc(OCC3CCCN3C)nc3c(F)c(-c4nc(N)cc(C)c4C(F)(F)F)c(Cl)cc23)C(C)C1
8190 nM: IC50 (second compound 1 µM)
> 10000 nM: IC50 (second compound 0.00316 µM) | IC50 (second compound 0.01 µM) | IC50 (second compound 0.0316 µM) | IC50 (second compound 0.1 µM) | IC50 (second compound 0.316 µM)
inactive: viability, T/C [3] 91.2% | viability, T/C [4] 83.3% | viability, T/C [5] 64.8% | viability, T/C [6] 69.9% | viability, T/C (second compound 0.00316 µM, first compound 3.16 µM) 58.1% | viability, T/C (second compound 0.00316 µM, first compound 10 µM) 52.1% | viability, T/C [9] 90.3% | viability, T/C [10] 98.4% | viability, T/C [11] 88.9% | viability, T/C [12] 73.6% | viability, T/C (second compound 0.01 µM, first compound 3.16 µM) 77.9% | viability, T/C (second compound 0.01 µM, first compound 10 µM) 59.1% | viability, T/C [15] 102% | viability, T/C [16] 78.5% | viability, T/C [17] 79% | viability, T/C [18] 81.8% | viability, T/C (second compound 0.0316 µM, first compound 3.16 µM) 63.6% | viability, T/C (second compound 0.0316 µM, first compound 10 µM) 62.8% | viability, T/C [21] 82.9% | viability, T/C [22] 99% | viability, T/C [23] 63% | viability, T/C [24] 60.2% | viability, T/C (second compound 0.1 µM, first compound 3.16 µM) 61.8% | viability, T/C (second compound 0.1 µM, first compound 10 µM) 43.6% | viability, T/C [27] 108% | viability, T/C [28] 83% | viability, T/C [29] 81.5% | viability, T/C [30] 69.8% | viability, T/C (second compound 0.316 µM, first compound 3.16 µM) 75.6% | viability, T/C (second compound 0.316 µM, first compound 10 µM) 57.3% | viability, T/C [33] 85.9% | viability, T/C [34] 85.7% | viability, T/C [35] 69.5% | viability, T/C [36] 76.3% | viability, T/C (second compound 1 µM, first compound 3.16 µM) 55.7% | viability, T/C (second compound 1 µM, first compound 10 µM) 48.8%

O=C(c1ccc(F)c(F)c1Nc1ccc(I)cc1F)N1CC(O)([C@@H]2CCCCN2)C1 + C=CC(=O)N1CCN(c2nc(OCC3CCCN3C)nc3c(F)c(-c4nc(N)cc(C)c4C(F)(F)F)c(Cl)cc23)C(C)C1
230 nM: IC50 (second compound 0.00316 µM)
195 nM: IC50 (second compound 0.0316 µM)
324 nM: IC50 (second compound 1 µM)
212 nM: IC50 (second compound 0.01 µM)
148 nM: IC50 (second compound 0.316 µM)
327 nM: IC50 (second compound 0.1 µM)
inactive: viability, T/C [1] 86% | viability, T/C [2] 90.4% | viability, T/C [3] 72% | viability, T/C [4] 61.1% | viability, T/C [5] 47.1% | viability, T/C [6] 33% | viability, T/C [7] 105% | viability, T/C [8] 80.9% | viability, T/C [9] 70.3% | viability, T/C [10] 61.9% | viability, T/C [11] 48.5% | viability, T/C [12] 30.9% | viability, T/C [13] 96.1% | viability, T/C [14] 90.7% | viability, T/C [15] 77% | viability, T/C [16] 55.5% | viability, T/C [17] 47.4% | viability, T/C [18] 35.9% | viability, T/C [19] 96.4% | viability, T/C [20] 82.5% | viability, T/C [21] 73.5% | viability, T/C [22] 69.2% | viability, T/C [23] 49.4% | viability, T/C [24] 34.4% | viability, T/C [25] 90.6% | viability, T/C [26] 86.2% | viability, T/C [27] 84.1% | viability, T/C [28] 52.6% | viability, T/C [29] 49.2% | viability, T/C [30] 37.1% | viability, T/C [31] 86.1% | viability, T/C [32] 72.9% | viability, T/C [33] 58% | viability, T/C [34] 70.8% | viability, T/C [35] 50.8% | viability, T/C [36] 36.6%
